{"source": "ChEMBL document CHEMBL6103567", "about": "“A novel pyridine-2-one AMPK inhibitor: Discovery, mechanism, and in vivo evaluation in a hypoxic pulmonary arterial hypertension rat model” (Eur J Med Chem, 2025)", "key": {"[1]": {"test": "Antiproliferative activity against human PASMC cells assessed as cell viability incubated for 48 hrs under hypoxia condition by CCK-8 assay", "assay_type": "toxicity, cell-based"}, "[2]": {"test": "Induction of apoptosis in hypoxia-induced human PASMC cells assessed as viable cells at 5 uM incubated for 12 hrs by Annexin V/FITC staining based flow cytometry analysis (reference value: 88.26%)", "assay_type": "functional", "details": "read-out: Activity"}, "[3]": {"test": "Induction of apoptosis in hypoxia-induced human PASMC cells assessed as early apoptotic cells at 5 uM incubated for 12 hrs by Annexin V/FITC staining based flow cytometry analysis (reference value: 10.17%)", "assay_type": "functional"}, "[4]": {"test": "Induction of apoptosis in hypoxia-induced human PASMC cells assessed as late apoptotic cells at 5 uM incubated for 12 hrs by Annexin V/FITC staining based flow cytometry analysis (reference value: 0.88%)", "assay_type": "functional"}, "[5]": {"test": "Induction of apoptosis in hypoxia-induced human PASMC cells assessed as necrotic cells at 5 uM incubated for 12 hrs by Annexin V/FITC staining based flow cytometry analysis (reference value: 0.68%)", "assay_type": "functional"}}, "data": [{"smiles": "c1cc(-c2cnn3cc(-c4ccc(OCCN5CCCCC5)cc4)cnc23)ccn1", "note": "[DORSOMORPHIN]", "values": [{"measurement": "IC50", "setting": "[1]", "value": 5.48, "unit": "µM"}, {"measurement": "viability at 5 µM", "setting": "[2]", "value": 89.4, "unit": "%"}, {"measurement": "Activity", "setting": "[3]", "value": 7.31, "unit": "%"}, {"measurement": "Activity", "setting": "[4]", "value": 1.7, "unit": "%"}, {"measurement": "Activity", "setting": "[5]", "value": 1.56, "unit": "%"}]}]}
